Measurements: USRE39198E1, “Heteroarylpiperidines, pyrrolidines and piperazines and their use as antipsychotics and analgesics” (Aventis Pharmaceuticals Inc., priority 1989, dated 2006)

In the case of Cl.O=C1[C@H]2CCCC[C@H]2C(=O)N1CCCCN1CCC(c2noc3cc(F)ccc23)CC1, the melting point is reported as 229 to 231 °C.
Compound CC(=O)OCCN1CCC(c2noc3cc(F)ccc23)CC1.O=C(O)/C=C/C(=O)O has a melting point of 154 to 155 °C.
Compound COCCN1CCC(c2noc3cc(F)ccc23)CC1.O=C(O)/C=C/C(=O)O has a melting point of 157 to 158 °C.
Work on CC(=O)OCCCCN1CCC(c2noc3cc(F)ccc23)CC1.O=C(O)/C=C/C(=O)O yielded a melting point of 142 to 143 °C.
Work on O=C(O)/C=C/C(=O)O.OCCCCN1CCC(c2noc3cc(F)ccc23)CC1 yielded a melting point of 131 to 132 °C.
Work on Fc1ccc2c(C3CCN(CCC4OCCCO4)CC3)noc2c1.O=C(O)/C=C/C(=O)O yielded a melting point of 161 to 162 °C.
With CCCCCCCCCC(=O)NCCN1CCC(c2noc3cc(F)ccc23)CC1.O=C(O)/C=C/C(=O)O the melting point was 108 to 110 °C.
Work on CC(=O)NCCN1CCC(c2noc3cc(F)ccc23)CC1.O=C(O)/C=C/C(=O)O yielded a melting point of 132 to 133 °C.
In the case of CC(=O)OCCNCCN1CCC(c2noc3cc(F)ccc23)CC1.O=C(O)/C=C/C(=O)O, the melting point is reported as 116 to 118 °C.
Compound C[C@@H](CO)CN1CCC(c2noc3cc(F)ccc23)CC1.O=C(O)/C=C/C(=O)O has a melting point of 114 to 115 °C.
Compound CC(=O)OC[C@H](C)CN1CCC(c2noc3cc(F)ccc23)CC1.O=C(O)/C=C/C(=O)O has a melting point of 118 to 120 °C.
CC(C)(CO)CN1CCC(c2noc3cc(F)ccc23)CC1.O=C(O)/C=C/C(=O)O gave a melting point of 144 to 145 °C.
CC(C)(O)CCN1CCC(c2noc3cc(F)ccc23)CC1.O=C(O)/C=C/C(=O)O gave a melting point of 156 to 158 °C.
Work on CCOC(=O)CCN1CCC(c2noc3cc(F)ccc23)CC1.O=C(O)/C=C/C(=O)O yielded a melting point of 135 to 136 °C.
Work on CCOC(C)c1ccc(OCCCN2CCC(c3noc4cc(F)ccc34)CC2)c(OC)c1.Cl (centres unmarked) yielded a melting point of 139 to 141 °C.
In the case of CCc1ccc(OCCCN2CCC(c3noc4cc(F)ccc34)CC2)cc1OC.Cl, the melting point is reported as 150 to 152 °C.
In the case of CC(=O)c1ccc(O)c(OC/C=C/CN2CCC(c3noc4cc(F)ccc34)CC2)c1.Cl, the melting point is reported as 208 to 210 °C.
For Cl.O=C1[C@H]2CCCC[C@H]2C(=O)N1CCCN1CCC(c2noc3cc(F)ccc23)CC1, the melting point was 242 to 245 °C.
Work on Cl.Cl.NCCCCN1CCC(c2noc3cc(F)ccc23)CC1 yielded a melting point of 234 to 237 °C.
With Cl.Cl.NCCCN1CCC(c2noc3cc(F)ccc23)CC1 [1-(3-Aminopropyl)-4-(6-fluoro-1,2-benzisoxazol-3-yl)-piperidine dihydrochloride] the melting point was 231 to 234 °C.
COc1cc(C(C)=O)ccc1OCCCN1CCC(c2nsc3cc(F)ccc23)CC1.Cl [1-[4-[3-[4-(6-Fluoro-1,2-benzisothiazol-3-yl)-1-piperidinyl]propoxy]-3-methoxyphenyl]ethanone hydrochloride] showed a melting point of 221 to 223 °C.
CCCCCCCCCC(=O)OCCCCN1CCC(c2noc3cc(F)ccc23)CC1.O=C(O)/C=C/C(=O)O [4-[4-(6-Fluoro-1,2-benzisoxazol-3-yl)-1-piperidinyl]butyl decanoate fumarate] gave a melting point of 109 to 110 °C.
With OCCCN1CCC(c2noc3cc(F)ccc23)CC1 [6-Fluoro-3-[1-(3-hydroxypropyl)-4-piperidinyl]-1,2-benzisoxazole] the melting point was 140 to 142 °C.
COc1cc(C(C)=O)ccc1OC/C=C\CN1CCC(c2noc3cc(F)ccc23)CC1 [(Z)-1-[4-[[4-[4-(6-Fluoro-1,2-benzisoxazol-3-yl)-1-piperidinyl]-2-butenyl]oxy]-3-methoxyphenyl]ethanone] showed a melting point of 57 to 59 °C.
COc1cc(C(C)=O)ccc1OCCCN1CCC(c2nsc3ccccc23)CC1 [Example 10, 1-[4-[3-[4-(1,2-Benzisothiazol-3-yl)-1-piperidinyl]-propoxy]-3-methoxyphenyl]ethanone] showed a melting point of 93 to 96 °C.
In the case of COc1cc(C(C)=O)ccc1OCCCN1CCN(c2n[nH]c3cc(F)ccc23)CC1 [Example 12, 1-[4-[3-[4-(6-Fluoro-1H-indazol-3-yl)-1-piperazinyl]-propoxy]-3-methoxyphenyl]ethanone], the melting point is reported as 135 to 137 °C.
For COc1cc(C(C)=O)ccc1OCCCN1CCC(c2n[nH]c3ccccc23)CC1 [Example 14, 1-[4-[3-[4-(1H-Indazol-3-yl)-1-piperidinyl]propoxy]-3-methoxyphenyl]ethanone], the melting point was 171 to 173 °C.
Work on COc1cc(C(C)=O)ccc1OCCCCN1CCC(c2n[nH]c3ccccc23)CC1 [Example 20, 1-[4-[4-[4(1H-indazol-3-yl)-1-piperidinyl]butoxy]-3-methoxyphenyl]ethanone] yielded a melting point of 133 to 135 °C.
For COc1cc(C(C)=O)ccc1OCCCN1CCC(c2n[nH]c3cc(F)ccc23)CC1 [Example 28, 1-[4-[3-[4-(6-Fluoro-1H-indazol-3-yl)-1-piperidinyl]-propoxy]-3-methoxyphenyl]ethanone], the melting point was 202 to 204 °C.
For COc1cc(C(C)=O)ccc1OCCCCN1CCN(c2n[nH]c3cc(Cl)ccc23)CC1 [Example 36, 1-[4-[4-[4-(6-Chloro-1H-indazol-3-yl)-1-piperazinyl]butoxy]-3-methoxyphenyl]ethanone], the melting point was 189 to 191 °C.
Compound COc1cc(C(C)=O)ccc1OCCN1CCN(c2nsc3ccccc23)CC1 [Example 39, 1-[4-[2-[4-(1,2-Benzisothiazol-3-yl)-1-piperazinyl]ethoxy]-3-methoxyphenyl]ethanone] has a melting point of 98 to 100 °C.
For COc1cc(C(C)=O)ccc1OCCN1CCN(c2n[nH]c3cc(Cl)ccc23)CC1 [Example 41, 1-[4-[2-[4-(6-Chloro-1H-indazol-3-yl)-1-piperazinyl]ethoxy]-3-methoxyphenyl]ethanone], the melting point was 154 to 156 °C.
Work on COc1cc(C(C)=O)ccc1OCCCCN1CCC(c2nsc3ccccc23)CC1 [Example 46, 1-[4-[4-[4-(1,2-Benzisothiazol-3-yl)-1-piperidinyl]butoxy]-3-methoxyphenyl]ethanone] yielded a melting point of 78 to 80 °C.
CC(=O)Nc1ccccc1OCCCN1CCC(c2noc3cc(F)ccc23)CC1 [Example 61, N-[2-[3-[4-(6-fluoro-1,2-benzoisoxazol-3-yl)-1-piperidinyl]propoxy]phenyl]acetamide] gave a melting point of 118 to 120 °C.
Compound Nc1cccc(OCCCN2CCC(c3noc4cc(F)ccc34)CC2)c1 [Example 71, 3-[3-[4-(6-Fluoro-1,2-benzisoxazol-3-yl)-1-piperidinyl]propoxy]aniline] has a melting point of 115 to 117 °C.
Compound COc1ccc(NC(C)=O)cc1OCCCN1CCC(c2nsc3cc(F)ccc23)CC1 [Example 74, N-[3-[3-[4-(6-Fluoro-1,2-benzisothiazol-3-yl)-1-piperidinyl]propoxy]-4-methoxyphenyl]acetamide] has a melting point of 109 to 111 °C.
In the case of COc1cc(C(C)=O)ccc1OC/C=C/CN1CCC(c2noc3cc(F)ccc23)CC1 [Example 81, (E)-1-[4-[[4-[4-(6-Fluoro-1,2-benzisoxazol-3-yl)-1-piperidinyl]-2-butenyl]oxy]-3-methoxyphenyl]ethanone], the melting point is reported as 91 to 93 °C.
CC(=O)c1ccc(OCc2ccccc2)c(OC/C=C/CN2CCC(c3noc4cc(F)ccc34)CC2)c1 [Example 85, (E)-1-[3-[[4-[4-(6-Fluoro-1,2-benzisoxazol-3-yl)-1-piperidinyl]-2-butenyl]oxy]-4-benzyloxyphenyl]ethanone] gave a melting point of 124 to 125 °C.
Compound Fc1ccc2c(C3CCN(CC4COc5ccccc5O4)CC3)noc2c1 (centres unmarked) [Example 91, 2-[4-(6-Fluoro-1,2-benzisoxazol-3-yl)-1-piperidinyl]methyl-1,4-benzodioxan] has a melting point of 86 to 87 °C.
CC(=O)c1ccc2c(c1)oc(=O)n2CCCN1CCC(c2noc3cc(F)ccc23)CC1 [Example 94, N-[3-[4-(6-Fluoro-1,2-benzisoxazol-3-yl)-1-piperidinyl]propyl]-6-acetyl-2-benzoxazolinone] gave a melting point of 152 to 154 °C.
For O=C1c2ccccc2C(=O)N1CCCCN1CCC(c2noc3cc(F)ccc23)CC1 [Example 98, N-[4-[4-(6-Fluoro-1,2-benzisoxazol-3-yl)-1-piperidinyl]butyl]phthalimide], the melting point was 144 to 146 °C.
For CC(=O)c1ccc(NCCCN2CCC(c3noc4cc(F)ccc34)CC2)c(O)c1 [Example 111, 1-[4-[3-[4-(6-Fluoro-1,2-benzisoxazol-3-yl)-1-piperidinyl]propylamino]-3-hydroxyphenyl]ethanone], the melting point was 150 to 152 °C.
With Fc1ccc2c(C3CCN(CCCCBr)CC3)noc2c1 [Example 114, 4-[4-(6-Fluoro-1,2-benzisoxazol-3-yl)-1-piperidinyl]butyl bromide] the melting point was 243 to 245 °C.
With Fc1ccc2c(C3CCN(CCN4CCOCC4)CC3)noc2c1 [Example 116, N-[2-[4-(6-Fluoro-1,2-benzisoxazol-3-yl)-1-piperidinyl]ethyl]morpholine] the melting point was 131 to 132 °C.
Work on COC(C)c1ccc(OCCCN2CCC(c3noc4cc(F)ccc34)CC2)c(O)c1 (centres unmarked) [Example 139, 3-[1-[3-[4-(1-Methoxyethyl)-2-hydroxyphenoxyl]propyl]-4-piperidinyl]-6-fluoro-1,2-benzisoxazole] yielded a melting point of 98 to 100 °C.
With Fc1ccc2c(C3CCN(CCCOc4ccc5[nH]ccc5c4)CC3)noc2c1 [Example 140, 6-Fluoro-3-[1-[3-[(1H-indol-5-yl)oxy]propyl]-4-piperidinyl]-1,2-benzisoxazole] the melting point was 118 to 121 °C.
CC(=O)c1ccc(OCCCN2CCC(c3nsc4cc(F)ccc34)CC2)c(O)c1 [Example 144, 1-[4-[3-[4-(6-Fluoro-1,2-benzisothiazol-3-yl)-1-piperidinyl]propoxy]-3-hydroxyphenyl]ethanone] showed a melting point of 135 to 137 °C.
For COc1cc(C(C)O)ccc1OCCCN1CCC(c2nsc3cc(F)ccc23)CC1 (stereo not drawn) [Example 145, 4-[3-[4-(6-Fluoro-1,2-benzisothiazol-3-yl)-1-piperidinyl]propoxy]-3-methoxy-alpha-methylbenzenemethanol], the melting point was 113 to 115 °C.
Compound O=C1c2cc(Cl)c(Cl)cc2C(=O)N1CCN1CCC(c2noc3cc(F)ccc23)CC1 [Example 151, N-[2-[4-(6-Fluoro-1,2-benzisoxazol-3-yl)-1-piperidinyl]ethyl]-4,5-dichlorophthalimide] has a melting point of 132 to 134 °C.
With O=C1c2c(Cl)ccc(Cl)c2C(=O)N1CCN1CCC(c2noc3cc(F)ccc23)CC1 [Example 153, N-[2-[4-(6-Fluoro-1,2-benzisoxazol-3-yl)-1-piperidinyl]ethyl]-3,6-dichlorophthalimide] the melting point was 163 to 164 °C.
